A value given as a limit tells only on which side of the number the result lay.

Results on 16 compounds are retold here after patent publication US12540143B2, “Methods and compositions for targeted protein degradation” (Ranok Therapeutics (Hangzhou) Co. Ltd., priority 2019, dated 2026).

This test deals with MV4-11 cells. The test is described as follows: MV4-11 Cytotoxicity Assay. It counts as cell-based, human. The following applies: Homo sapiens, MV4-11; 72 hr, CCK-8; read-out: MV4-11 cytotoxicity.
For `Cc1sc2c(c1C)C(c1ccc(Cl)cc1)=N[C@@H](CC(=O)NCC1CN(C(=O)C3CCN(Cc4ccc(-n5c(O)nnc5-c5cc(C(C)C)c(O)cc5O)cc4)CC3)C1)c1nnc(C)n1-2` [Compound 59, 2-((6S)-4-(4-chlorophenyl)-2,3,9-trimethyl-6H-thieno[3,2-f][1,2,4]triazolo[4,3-a][1,4]diazepin-6-yl)-N-((1-(1-(4-(3-(2,4-dihydroxy-5-isopropylphenyl)-5-hydroxy-4H-1,2,4-triazol-4-yl)benzyl)piperidine-4-carbonyl)azetidin-3-yl)methyl)acetamide, trifluoroacetic acid], the IC50 was < 100 nM. Regarding `Cc1sc2c(c1C)C(c1ccc(Cl)cc1)=N[C@@H](CC(=O)NCC(=O)NCC1CN(C(=O)C3CCN(Cc4ccc(-n5c(O)nnc5-c5cc(C(C)C)c(O)cc5O)cc4)CC3)C1)c1nnc(C)n1-2` [Compound 60, 2-((6S)-4-(4-chlorophenyl)-2,3,9-trimethyl-6H-thieno[3,2-f][1,2,4]triazolo[4,3-a][1,4]diazepin-6-yl)-N-(2-(((1-(1-(4-(3-(2,4-dihydroxy-5-isopropylphenyl)-5-hydroxy-4H-1,2,4-triazol-4-yl)benzyl)piperidine-4-carbonyl)azetidin-3-yl)methyl)amino)-2-oxoethyl)acetamide, trifluoroacetic acid], the IC50 was < 100 nM.

As for `Cc1sc2c(c1C)C(c1ccc(Cl)cc1)=N[C@@H](CCNCCOc1ccc(-n3c(O)nnc3-c3cc(C(C)C)c(O)cc3O)cc1)c1nnc(C)n1-2` [Compound 62, (S)-4-(4-(4-(2-((2-(4-(4-chlorophenyl)-2,3,9-trimethyl-6H-thieno[3,2-f][1,2,4]triazolo[4,3-a][1,4]diazepin-6-yl)ethyl)amino)ethoxy)phenyl)-5-hydroxy-4H-1,2,4-triazol-3-yl)-6-isopropylbenzene-1,3-diol, trifluoroacetic acid], the IC50 lay within 100 to 1000 nM. For the compound `Cc1sc2c(c1C)C(c1ccc(Cl)cc1)=N[C@@H](CCNCCOCCOc1ccc(-n3c(O)nnc3-c3cc(C(C)C)c(O)cc3O)cc1)c1nnc(C)n1-2` [Compound 63, (S)-4-(4-(4-(2-(2-((2-(4-(4-chlorophenyl)-2,3,9-trimethyl-6H-thieno[3,2-f][1,2,4]triazolo[4,3-a][1,4]diazepin-6-yl)ethyl)amino)ethoxy)ethoxy)phenyl)-5-hydroxy-4H-1,2,4-triazol-3-yl)-6-isopropylbenzene-1,3-diol, trifluoroacetic acid], the IC50 is 100 to 1000 nM.

With `Cc1sc2c(c1C)C(c1ccc(Cl)cc1)=N[C@@H](CCNCC1CCN(C(=O)C3CCN(Cc4ccc(-n5c(O)nnc5-c5cc(C(C)C)c(O)cc5O)cc4)CC3)CC1)c1nnc(C)n1-2` [Compound 64, (4-(((2-((6S)-4-(4-chlorophenyl)-2,3,9-trimethyl-6H-thieno[3,2-f][1,2,4]triazolo[4,3-a][1,4]diazepin-6-yl)ethyl)amino)methyl)piperidin-1-yl)(1-(4-(3-(2,4-dihydroxy-5-isopropylphenyl)-5-hydroxy-4H-1,2,4-triazol-4-yl)benzyl)piperidin-4-yl) methanone, trifluoroacetic acid], the IC50 lay in the range of 100 to 1000 nM.

As for `Cc1sc2c(c1C)C(c1ccc(Cl)cc1)=N[C@@H](CCN(C)CCOc1ccc(-n3c(O)nnc3-c3cc(C(C)C)c(O)cc3O)cc1)c1nnc(C)n1-2` [Compound 65, (S)-4-(4-(4-(2-((2-(4-(4-chlorophenyl)-2,3,9-trimethyl-6H-thieno[3,2-f][1,2,4]triazolo[4,3-a][1,4]diazepin-6-yl)ethyl)(methyl)amino)ethoxy)phenyl)-5-hydroxy-4H-1,2,4-triazol-3-yl)-6-isopropylbenzene-1,3-diol], the IC50 was in the range of 100 to 1000 nM. As for `Cc1sc2c(c1C)C(c1ccc(Cl)cc1)=N[C@@H](CCNCC1CCN(C(=O)C3CCN(Cc4ccc(-n5c(O)nnc5-c5cc(C(C)C)c(O)cc5O)cc4)CC3)C1)c1nnc(C)n1-2` (stereo partly drawn) [Compound 66, (3-(((2-((6S)-4-(4-chlorophenyl)-2,3,9-trimethyl-6H-thieno[3,2-f][1,2,4]triazolo[4,3-a][1,4]diazepin-6-yl)ethyl)amino)methyl)pyrrolidin-1-yl)(1-(4-(3-(2,4-dihydroxy-5-isopropylphenyl)-5-hydroxy-4H-1,2,4-triazol-4-yl)benzyl)piperidin-4-yl) methanone, trifluoroacetic acid], the figure is 100 to 1000 nM. As to `CCc1cc(-c2nnc(O)n2-c2ccc(CN3CCC(C(=O)N4CCC(CNCC[C@@H]5N=C(c6ccc(Cl)cc6)c6c(sc(C)c6C)-n6c(C)nnc65)C4)CC3)cc2)c(O)cc1O` (stereo partly drawn) [Compound 67, (3-(((2-((6S)-4-(4-chlorophenyl)-2,3,9-trimethyl-6H-thieno[3,2-f][1,2,4]triazolo[4,3-a][1,4]diazepin-6-yl)ethyl)amino)methyl)pyrrolidin-1-yl)(1-(4-(3-(5-ethyl-2,4-dihydroxyphenyl)-5-hydroxy-4H-1,2,4-triazol-4-yl)benzyl)piperidin-4-yl) methanone, trifluoroacetic acid], the IC50 lay within 100 to 1000 nM.

On to `CCc1cc(-c2nnc(O)n2-c2ccc(CN3CCC(C(=O)N4CCC(CNCC[C@@H]5N=C(c6ccc(Cl)cc6)c6c(sc(C)c6C)-n6c(C)nnc65)CC4)CC3)cc2)c(O)cc1O` [Compound 68, (4-(((2-((6S)-4-(4-chlorophenyl)-2,3,9-trimethyl-6H-thieno[3,2-f][1,2,4]triazolo[4,3-a][1,4]diazepin-6-yl)ethyl)amino)methyl)piperidin-1-yl)(1-(4-(3-(5-ethyl-2,4-dihydroxyphenyl)-5-hydroxy-4H-1,2,4-triazol-4-yl)benzyl)piperidin-4-yl) methanone, trifluoroacetic acid], for which the IC50 lay within 100 to 1000 nM. For `Cc1sc2c(c1C)C(c1ccc(Cl)cc1)=N[C@@H](CCN(C)CCOCCOc1ccc(-n3c(O)nnc3-c3cc(C(C)C)c(O)cc3O)cc1)c1nnc(C)n1-2` [Compound 71, (S)-4-(4-(4-(2-(2-((2-(4-(4-chlorophenyl)-2,3,9-trimethyl-6H-thieno[3,2-f][1,2,4]triazolo[4,3-a][1,4]diazepin-6-yl)ethyl)(methyl)amino)ethoxy)ethoxy)phenyl)-5-hydroxy-4H-1,2,4-triazol-3-yl)-6-isopropylbenzene-1,3-diol, trifluoroacetic acid], the IC50 was 100 to 1000 nM.

`Cc1sc2c(c1C)C(c1ccc(Cl)cc1)=N[C@@H](CC(=O)Nc1ccc(NC(=O)C3CCN(Cc4ccc(-n5c(O)nnc5-c5cc(C(C)C)c(O)cc5O)cc4)CC3)cc1)c1nnc(C)n1-2` [Compound 72, N-(4-(2-((6S)-4-(4-chlorophenyl)-2,3,9-trimethyl-6H-thieno[3,2-f][1,2,4]triazolo[4,3-a][1,4]diazepin-6-yl)acetamido)phenyl)-1-(4-(3-(2,4-dihydroxy-5-isopropylphenyl)-5-hydroxy-4H-1,2,4-triazol-4-yl)benzyl)piperidine-4-carboxamide, trifluoroacetic acid]: the IC50 is < 100 nM.

Consider `CCc1cc(-c2nnc(O)n2-c2ccc(CN3CCC(C(=O)N4CCC(CNC(=O)C[C@@H]5N=C(c6ccc(Cl)cc6)c6c(sc(C)c6C)-n6c(C)nnc65)C4)CC3)cc2)c(O)cc1O` (stereo partly drawn) [Compound 77, 2-((6S)-4-(4-chlorophenyl)-2,3,9-trimethyl-6H-thieno[3,2-f][1,2,4]triazolo[4,3-a][1,4]diazepin-6-yl)-N-((1-(1-(4-(3-(5-ethyl-2,4-dihydroxyphenyl)-5-hydroxy-4H-1,2,4-triazol-4-yl)benzyl)piperidine-4-carbonyl)pyrrolidin-3-yl)methyl)acetamide, trifluoroacetic acid], for which the IC50 was in the range of 100 to 1000 nM. For `Cc1sc2c(c1C)C(c1ccc(Cl)cc1)=N[C@@H](CC(=O)N1CCN(c3ccc(-n4c(O)nnc4-c4cc(C(C)C)c(O)cc4O)cc3)CC1)c1nnc(C)n1-2` [Compound 79, (S)-2-(4-(4-chlorophenyl)-2,3,9-trimethyl-6H-thieno[3,2-f][1,2,4]triazolo[4,3-a][1,4]diazepin-6-yl)-1-(4-(4-(3-(2,4-dihydroxy-5-isopropylphenyl)-5-hydroxy-4H-1,2,4-triazol-4-yl)phenyl)piperazin-1-yl)ethan-1-one] the value was < 100 nM; for `Cc1sc2c(c1C)C(c1ccc(Cl)cc1)=N[C@@H](CC(=O)N1CCC(CCN3CCC(Cc4ccc(-n5c(O)nnc5-c5cc(C(C)C)c(O)cc5O)cc4)CC3)CC1)c1nnc(C)n1-2` [Compound 80, (S)-2-(4-(4-chlorophenyl)-2,3,9-trimethyl-6H-thieno[3,2-f][1,2,4]triazolo[4,3-a][1,4]diazepin-6-yl)-1-(4-(2-(4-(4-(3-(2,4-dihydroxy-5-isopropylphenyl)-5-hydroxy-4H-1,2,4-triazol-4-yl)benzyl)piperidin-1-yl)ethyl)piperidin-1-yl)ethan-1-one, trifluoroacetic acid], < 100 nM; for `Cc1sc2c(c1C)C(c1ccc(Cl)cc1)=N[C@@H](CC(=O)N[C@H](C)c1cccc(CN3CCC(Cc4ccc(-n5c(O)nnc5-c5cc(C(C)C)c(O)cc5O)cc4)CC3)c1)c1nnc(C)n1-2` [Compound 81, 2-((S)-4-(4-chlorophenyl)-2,3,9-trimethyl-6H-thieno[3,2-f][1,2,4]triazolo[4,3-a][1,4]diazepin-6-yl)-N—((R)-1-(3-((4-(4-(3-(2,4-dihydroxy-5-isopropylphenyl)-5-hydroxy-4H-1,2,4-triazol-4-yl)benzyl)piperidin-1-yl)methyl)phenyl)ethyl)acetamide, trifluoroacetic acid], < 100 nM. For `Cc1sc2c(c1C)C(c1ccc(Cl)cc1)=N[C@@H](CC(=O)N1CCC(Cc3ccc(CN(C)Cc4ccc(-n5c(O)nnc5-c5cc(C(C)C)c(O)cc5O)cc4)cc3)CC1)c1nnc(C)n1-2` [Compound 83, (S)-2-(4-(4-chlorophenyl)-2,3,9-trimethyl-6H-thieno[3,2-f][1,2,4]triazolo[4,3-a][1,4]diazepin-6-yl)-1-(4-(4-(((4-(3-(2,4-dihydroxy-5-isopropylphenyl)-5-hydroxy-4H-1,2,4-triazol-4-yl)benzyl)(methyl)amino)methyl)benzyl)piperidin-1-yl)ethan-1-one, trifluoroacetic acid] the value was < 100 nM.
